pIC50: −log10 of the molar value.
Assays:
Assay in all cases: inhibition of pNPFuc hydrolysis, A405
Type in all cases: biochemical
[1] = molecular target: T1, AmGH29B (Akkermansia muciniphila, UniProt B2ULU6)
T1 construct: gene Amuc_0146; mature peptide lacking the signal peptide
T1 sequence (B2ULU6 27-711): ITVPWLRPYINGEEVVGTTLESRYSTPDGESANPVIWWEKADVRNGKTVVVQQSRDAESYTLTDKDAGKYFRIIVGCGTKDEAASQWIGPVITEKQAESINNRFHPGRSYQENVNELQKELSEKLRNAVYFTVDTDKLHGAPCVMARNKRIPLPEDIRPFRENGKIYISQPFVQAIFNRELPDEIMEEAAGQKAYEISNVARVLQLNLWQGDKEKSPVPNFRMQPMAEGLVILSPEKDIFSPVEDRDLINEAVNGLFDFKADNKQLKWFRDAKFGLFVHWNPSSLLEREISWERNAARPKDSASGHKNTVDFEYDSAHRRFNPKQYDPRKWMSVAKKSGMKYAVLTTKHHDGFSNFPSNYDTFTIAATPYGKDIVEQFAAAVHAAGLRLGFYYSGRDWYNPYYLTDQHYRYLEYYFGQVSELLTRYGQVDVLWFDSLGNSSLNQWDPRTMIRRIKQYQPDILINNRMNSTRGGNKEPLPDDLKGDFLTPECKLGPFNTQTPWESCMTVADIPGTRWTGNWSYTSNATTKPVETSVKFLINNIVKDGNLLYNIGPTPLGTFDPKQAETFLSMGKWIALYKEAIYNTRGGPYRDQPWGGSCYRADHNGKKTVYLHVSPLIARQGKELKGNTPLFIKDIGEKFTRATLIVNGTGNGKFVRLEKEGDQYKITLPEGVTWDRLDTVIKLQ

[2] = molecular target: T2, AmGH29A (Akkermansia muciniphila, UniProt B2UL68)
T2 construct: gene Amuc_0010; mature peptide lacking the signal peptide
T2 sequence (B2UL68 20-538): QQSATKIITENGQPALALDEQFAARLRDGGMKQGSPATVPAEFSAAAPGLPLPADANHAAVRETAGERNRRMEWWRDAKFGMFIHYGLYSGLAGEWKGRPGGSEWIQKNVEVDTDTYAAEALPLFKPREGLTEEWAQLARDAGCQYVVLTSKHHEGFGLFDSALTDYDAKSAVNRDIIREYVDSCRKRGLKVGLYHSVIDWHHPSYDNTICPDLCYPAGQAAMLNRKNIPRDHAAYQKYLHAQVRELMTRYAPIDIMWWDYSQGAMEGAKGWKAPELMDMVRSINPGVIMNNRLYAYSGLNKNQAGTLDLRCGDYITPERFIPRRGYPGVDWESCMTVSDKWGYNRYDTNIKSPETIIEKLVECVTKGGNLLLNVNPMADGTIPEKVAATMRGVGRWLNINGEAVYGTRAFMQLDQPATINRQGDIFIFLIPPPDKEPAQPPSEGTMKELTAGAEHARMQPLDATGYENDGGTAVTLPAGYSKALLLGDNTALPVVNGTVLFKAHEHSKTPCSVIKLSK

[3] = molecular target: T3, AmGH29D (Akkermansia muciniphila, UniProt B2UQE4)
T3 construct: gene Amuc_0846; mature peptide lacking the signal peptide
T3 sequence (B2UQE4 25-704): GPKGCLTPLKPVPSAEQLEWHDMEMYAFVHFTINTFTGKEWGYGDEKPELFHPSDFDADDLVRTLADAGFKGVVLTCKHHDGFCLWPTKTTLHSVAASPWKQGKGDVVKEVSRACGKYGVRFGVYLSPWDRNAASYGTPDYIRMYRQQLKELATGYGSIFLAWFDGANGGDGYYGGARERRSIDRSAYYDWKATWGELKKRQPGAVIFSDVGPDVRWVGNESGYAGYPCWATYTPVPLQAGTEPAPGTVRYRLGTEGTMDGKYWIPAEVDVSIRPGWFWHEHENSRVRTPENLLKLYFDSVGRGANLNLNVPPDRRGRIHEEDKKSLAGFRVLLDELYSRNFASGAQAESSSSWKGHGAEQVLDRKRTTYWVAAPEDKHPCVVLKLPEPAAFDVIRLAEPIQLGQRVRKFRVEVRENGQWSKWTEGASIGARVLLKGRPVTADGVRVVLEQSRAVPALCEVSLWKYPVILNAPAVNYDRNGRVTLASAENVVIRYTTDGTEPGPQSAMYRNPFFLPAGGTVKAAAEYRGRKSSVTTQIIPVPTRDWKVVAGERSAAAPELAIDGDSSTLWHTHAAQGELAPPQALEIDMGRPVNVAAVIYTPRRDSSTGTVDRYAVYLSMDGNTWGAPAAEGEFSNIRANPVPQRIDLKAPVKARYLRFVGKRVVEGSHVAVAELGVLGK

[4] = molecular target: T4, AmGH29C (Akkermansia muciniphila, UniProt B2UNB9)
T4 construct: gene Amuc_0392; mature peptide lacking the signal peptide
T4 sequence (B2UNB9 41-709): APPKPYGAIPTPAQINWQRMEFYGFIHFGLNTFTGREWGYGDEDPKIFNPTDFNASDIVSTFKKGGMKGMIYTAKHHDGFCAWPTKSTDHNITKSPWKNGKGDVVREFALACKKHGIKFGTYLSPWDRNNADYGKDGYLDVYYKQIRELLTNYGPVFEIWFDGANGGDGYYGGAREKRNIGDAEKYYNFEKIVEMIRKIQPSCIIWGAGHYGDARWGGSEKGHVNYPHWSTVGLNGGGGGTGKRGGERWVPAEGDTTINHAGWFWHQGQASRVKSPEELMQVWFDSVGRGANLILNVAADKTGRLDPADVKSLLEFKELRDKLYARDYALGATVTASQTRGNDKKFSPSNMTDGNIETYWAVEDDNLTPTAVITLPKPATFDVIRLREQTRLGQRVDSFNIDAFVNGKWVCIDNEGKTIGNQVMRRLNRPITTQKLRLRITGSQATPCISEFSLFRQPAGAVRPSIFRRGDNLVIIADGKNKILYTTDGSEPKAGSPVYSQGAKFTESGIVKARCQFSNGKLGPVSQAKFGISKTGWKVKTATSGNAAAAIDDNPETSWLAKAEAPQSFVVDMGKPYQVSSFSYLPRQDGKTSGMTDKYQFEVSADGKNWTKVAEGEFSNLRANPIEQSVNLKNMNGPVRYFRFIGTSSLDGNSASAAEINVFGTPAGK

Measured: pIC50

C[C@@H]1NC[C@@H](O)[C@H](O)[C@@H]1O [DFJ, 1-Deoxyfuconojirimycin]
> 4.27: all assays above
